Among the data in US11236059B2, “Targeted cytotoxic ratjadone derivatives and conjugates thereof” (HELMHOLTZ-ZENTRUM FUER INFEKTIONSFORSCHUNG GMBH, priority 2017, dated 2022) are IC50 values, retold here.

Read-outs that look alike come from different tables or passages of the source.

Holding throughout (type): cell-based
In test [1] the test system is A549 (DSMZ ACC 107) cells. Briefly: cells. The settings on record: growth inhibition, 5 days of incubation, MTT assay; read-out: IC50 [nM] A-549 (Gonadoliberin-Ratjadone Conjugates). The procedure:
(§1) 60 μL of serial dilutions of the test compound were given to 120 μL of suspended cells (50.000/mL) in wells of 96-well plates. After 5 days of incubation growth inhibition (IC50) was determined using an MTT assay.^[64]
(In general: Formazan colour is commonly taken as a measure of viable cells.)

Test [2] relates to SKOV-3 (DSMZ ATCC HTB 77) cells. Briefly: cells. The protocol: as §1
Test [3] has as its system MCF-7 (DSMZ ACC 115) cells. Briefly: cells. The protocol: as §1
For another test, the target named is T1, CRM1 (Homo sapiens, UniProt O14980).
T1 construct: HeLa cells stably expressing a fluorescent translocation biosensor (HeLaRevBio); endogenous in cells; host or cells: HeLa (HeLaRevBio in A7; HeLa in A8)
T1 sequence (O14980 whole entry): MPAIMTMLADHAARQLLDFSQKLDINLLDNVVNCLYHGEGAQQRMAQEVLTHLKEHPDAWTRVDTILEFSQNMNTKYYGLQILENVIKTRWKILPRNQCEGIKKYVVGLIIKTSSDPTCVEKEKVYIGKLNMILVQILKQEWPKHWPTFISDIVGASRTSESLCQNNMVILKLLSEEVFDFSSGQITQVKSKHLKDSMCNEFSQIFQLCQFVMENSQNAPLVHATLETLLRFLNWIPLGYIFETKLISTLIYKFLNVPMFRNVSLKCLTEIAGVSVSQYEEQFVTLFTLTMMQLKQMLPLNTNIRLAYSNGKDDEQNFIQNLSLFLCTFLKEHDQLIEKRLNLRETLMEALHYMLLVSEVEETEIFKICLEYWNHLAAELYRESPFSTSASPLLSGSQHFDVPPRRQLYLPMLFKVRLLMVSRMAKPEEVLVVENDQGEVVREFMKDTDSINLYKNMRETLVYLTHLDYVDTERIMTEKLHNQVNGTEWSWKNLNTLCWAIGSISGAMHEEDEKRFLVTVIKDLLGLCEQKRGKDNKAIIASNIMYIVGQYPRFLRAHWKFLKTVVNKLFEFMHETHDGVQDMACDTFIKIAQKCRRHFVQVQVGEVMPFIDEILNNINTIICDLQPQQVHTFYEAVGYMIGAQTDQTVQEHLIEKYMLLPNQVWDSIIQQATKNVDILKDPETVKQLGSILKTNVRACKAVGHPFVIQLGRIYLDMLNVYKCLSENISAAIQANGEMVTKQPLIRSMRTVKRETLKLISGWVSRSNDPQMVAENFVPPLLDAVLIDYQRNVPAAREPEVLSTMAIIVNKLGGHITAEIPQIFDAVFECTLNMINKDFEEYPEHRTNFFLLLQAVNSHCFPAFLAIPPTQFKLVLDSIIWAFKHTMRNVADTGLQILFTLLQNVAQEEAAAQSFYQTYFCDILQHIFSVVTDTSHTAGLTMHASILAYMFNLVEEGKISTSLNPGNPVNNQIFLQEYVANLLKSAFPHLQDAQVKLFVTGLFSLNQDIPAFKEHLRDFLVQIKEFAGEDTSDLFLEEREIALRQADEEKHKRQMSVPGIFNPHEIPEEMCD
Briefly: Monitoring export inhibitory activity (translocation biosensor, HeLaRevBio cells). The protocol: Export inhibitory ability of compounds was evaluated with the translocation biosensor system. This cellular assay depends on a recombinantly expressed fusion protein consisting of a nuclear localization signal (SV40-NLS), glutathione S-transferase (GST), green fluorescent protein (GFP) and a nuclear export signal (HIV1-RevNES). Due to the two transport signals (NLS/NES), the biosensor is permanently shuttling between nucleus and cytoplasm but resides prominently in the cytoplasm due to a comparatively stronger NES. Export inhibiting compound induce a nuclear accumulation of the GFP-signal^[65,66] Cell lines were maintained as recommended by the American Type Culture Collection in DMEM containing 5% glutamine (Thermo Fisher Scientific, Waltham, USA) supplemented with 10% FBS (Thermo Fisher Scientific, Waltham, USA). For quantifying the nuclear export inhibitory effect, HeLa cells stably expressing a fluorescent translocation biosensor (HeLaRevBio)^[67] were seeded into black 96 well μclear plates (Greiner, Germany). They next day compounds were added covering an appropriate concentration range. After 1h of incubation, cells were fixed in 4% PFA for 10 min and permeabilized with 0.1% Triton X 100 in PBS for 5 min. After washing with PBS nuclei were labeled with Hoechst H33342 (30 min 10 μg/ml). The intracellular distribution of the biosensor-dependent GFP signal was quantitatively evaluated with the high content imaging system ImageXpress MicroXLS (Molecular Devices, Sunnyvale, USA). By using the translocation enhanced application module (Molecular Devices, Sunnyvale, USA) the GFP-intensity was quantified in the cytoplasm and nuclear region. As final readout the difference of Mean Inner and Mean Outer Intensity was calculated. IC50s of nuclear export inhibition were calculated using Sigma Plot with four parameter logistics curve regression (Systat Software GmbH, Erkrath, Germany). […] The following day compounds were added at 125 nM final concentration.

Test [4] relates to KB 3.1 (DSMZ ACC 158) cells. Briefly: Cell proliferation assay under folate free conditions. The settings on record: RPMI-medium without folic acid + 10% dialyzed fetal calf serum; MTT assay after 1, 2 and 5 days (day of the value not given); read-out: IC50 [nM] KB 3.1 (Folate-Ratjadone Conjugates). The protocol:
KB 3.1 (DSMZ ACC 158) cells were cultivated at 37° C. and 10% C002 in RMPI-medium without folic acid (Gibco) with 10% fetal calf serum (Gibco). 120 μL of suspended cells (100.000/mL) were seeded in wells of 96-well plates and after 24 h at 37° C. and 10% CO2 the medium was removed, the cells were washed with PBS and RPMI-medium without folic acid (Gibco)+10% dialyzed fetal calf serum (Sigma) were added to the cells, before after additional 24 h at 37° C. and 10% C002 60 μL of serial dilutions of the test compound were given to cells. After 1, 2 and 5 days of incubation growth inhibition (IC50) was determined using an MTT assay.^[64]

The mark [5] stands for this setting: HeLa cells stably expressing translocation biosensor, 1h of incubation, read-out: IC50 [nM] CRM1 (nuclear export inhibition).

Take `C/C=C/[C@@H]1O[C@H]([C@@H](/C=C/C=C(\C)C[C@@H](C)/C=C(C)\C=C\[C@H]2CC=CC(=O)O2)NC(=O)OCc2ccc(NC(=O)[C@H](CCCNC(N)=O)NC(=O)[C@@H](NC(=O)OC[C@@H]3[C@@H]4CCc5nnn(CCC[C@@H](NC(=O)[C@H](Cc6ccc(O)cc6)NC(=O)[C@H](CO)NC(=O)[C@H](Cc6c[nH]c7ccccc67)NC(=O)[C@H](Cc6c[nH]cn6)NC(=O)[C@@H]6CCC(=O)N6)C(=O)N[C@@H](CC(C)C)C(=O)N[C@@H](CCCNC(=N)N)C(=O)N6CCC[C@H]6C(=O)NNC(N)=O)c5CC[C@@H]43)C(C)C)cc2)C[C@@H](O)[C@@H]1C`: the IC50 (usually the point on the concentration scale where inhibition reaches its midpoint) in test [1] was determined as 12.8 nM.
In the case of `C/C=C/[C@@H]1O[C@H]([C@@H](/C=C/C=C(\C)C[C@@H](C)/C=C(C)\C=C\[C@H]2CC=CC(=O)O2)NC(=O)OCc2ccc(NC(=O)[C@H](CCCNC(N)=O)NC(=O)[C@@H](NC(=O)OC[C@@H]3[C@@H]4CCc5nnn(CCC[C@@H](NC(=O)[C@H](Cc6ccc(O)cc6)NC(=O)[C@H](CO)NC(=O)[C@H](Cc6c[nH]c7ccccc67)NC(=O)[C@H](Cc6c[nH]cn6)NC(=O)[C@@H]6CCC(=O)N6)C(=O)N[C@@H](CC(C)C)C(=O)N[C@@H](CCCNC(=N)N)C(=O)N6CCC[C@H]6C(=O)NCC(N)=O)c5CC[C@@H]43)C(C)C)cc2)C[C@@H](O)[C@@H]1C`, the IC50 in test [1] is 23 nM.
Consider `C/C=C/[C@@H]1O[C@H]([C@@H](/C=C/C=C(\C)C[C@@H](C)/C=C(C)\C=C\[C@H]2CC=CC(=O)O2)NC(=O)OCc2ccc(NC(=O)[C@H](CCCNC(N)=O)NC(=O)[C@@H](NC(=O)OCCc3cn(CCC[C@H](NC(=O)[C@H](Cc4ccc(O)cc4)NC(=O)[C@H](CO)NC(=O)[C@H](Cc4c[nH]c5ccccc45)NC(=O)[C@H](Cc4c[nH]cn4)NC(=O)[C@@H]4CCC(=O)N4)C(=O)N[C@@H](CC(C)C)C(=O)N[C@@H](CCCNC(=N)N)C(=O)N4CCC[C@H]4C(=O)NCC(N)=O)nn3)C(C)C)cc2)C[C@@H](O)[C@@H]1C`, for which the half-maximal inhibitory concentration (IC50) in test [1] stood at 1200 nM.
As for `C/C=C/[C@@H]1O[C@H]([C@H](N)/C=C/C=C(\C)C[C@@H](C)/C=C(C)\C=C\[C@H]2CC=CC(=O)O2)C[C@@H](O)[C@@H]1C` [16R-Amino-Ratjadone 11, (R)-6-((1E,3Z,5R,7E,9E,11R)-11-amino-11-((2S,4R,5S,6S)-4-hydroxy-5-methyl-6-((E)-prop-1-en-1-yl)tetrahydro-2H-pyran-2-yl)-3,5,7-trimethylundeca-1,3,7,9-tetra-en-1-yl)-5,6-dihydro-2H-pyran-2-one], the IC50 turned out to be 0.61 nM in test [2] (Homo sapiens, SK-OV-3, 120 h, read-out: IC50 [nM] SK-OV-3, growth inhibition, 5 days of incubation, MTT assay); 0.81 nM in test [2] (read-out: IC50 [nM] SK-OV-3, growth inhibition, 5 days of incubation, MTT assay); 0.26 nM in test [3] (Homo sapiens, MCF7, 120 h, read-out: IC50 [nM] MCF-7, growth inhibition, 5 days of incubation, MTT assay); 0.36 nM in test [3] (read-out: IC50 [nM] MCF-7, growth inhibition, 5 days of incubation, MTT assay); 2.7 nM on CRM1 (setting [5]).
Regarding `C/C=C/[C@@H]1O[C@H]([C@@H](N)/C=C/C=C(\C)C[C@@H](C)/C=C(C)\C=C\[C@H]2CC=CC(=O)O2)C[C@@H](O)[C@@H]1C` [16S-Amino-Ratjadone 12, (R)-6-((1E,3Z,5R,7E,9E,11 S)-11-amino-11-((2S,4R,5S,6S)-4-hydroxy-5-methyl-6-((E)-prop-1-en-1-yl)tetrahydro-2H-pyran-2-yl)-3,5,7-trimethylun-deca-1,3,7,9-tetraen-1-yl)-5,6-dihydro-2H-pyran-2-one], the 50% inhibitory concentration (IC50) at CRM1 (setting [5]) amounted to 2.8 nM.
On to `C/C=C/[C@@H]1O[C@H](C(/C=C/C=C(\C)C[C@@H](C)/C=C\C=C(/C)[C@H]2CC=CC(=O)O2)NC(=O)OCc2ccc(NC(=O)[C@H](CCCNC(N)=O)NC(=O)[C@@H](NC(=O)OC[C@@H]3[C@@H]4CCc5nnn(-c6ccc(C(=O)NCCCC[C@H](NC(=O)[C@H](CC(=O)O)NC(=O)[C@H](CC(=O)O)NC(=O)[C@H](CCCCNC(=O)c7ccc(-n8nnc9c8CC[C@H]8[C@@H](CC9)[C@H]8COC(=O)N[C@H](C(=O)N[C@@H](CCCNC(N)=O)C(=O)Nc8ccc(COC(=O)NC(/C=C/C=C(\C)C[C@@H](C)/C=C\C=C(/C)[C@H]9CC=CC(=O)O9)[C@@H]9C[C@@H](O)[C@H](C)[C@H](/C=C/C)O9)cc8)C(C)C)cc7)NC(=O)[C@@H](CC(=O)O)NC(=O)[C@@H](CC(=O)O)NC(=O)CC[C@H](NC(=O)c7ccc(NCc8cnc9nc(N)nc(O)c9n8)cc7)C(=O)O)C(=O)O)cc6)c5CC[C@@H]43)C(C)C)cc2)C[C@@H](O)[C@@H]1C` (stereo partly drawn) [FA-4-(Val-Cit-PABA-16R-Aminoratjadone)2], for which the IC50 in test [4] was 148 nM.
Turning to `C/C=C/[C@@H]1O[C@H]([C@@H](/C=C/C=C(\C)C[C@@H](C)/C=C(C)\C=C\[C@H]2CC=CC(=O)O2)NC(=O)OCCc2cn(CCC[C@H](NC(=O)[C@@H](CC(=O)O)NC(=O)[C@@H](CC(=O)O)NC(=O)[C@@H](CC(=O)O)NC(=O)[C@@H](CC(=O)O)NC(=O)[C@@H](CC(=O)O)NC(=O)CC[C@H](NC(=O)c3ccc(NCc4cnc5nc(N)nc(O)c5n4)cc3)C(=O)O)C(=O)O)nn2)C[C@@H](O)[C@@H]1C` [FA-5-16R-Aminoratjadone], in test [4], the half-maximal inhibitory concentration (IC50) amounted to 50.3 nM.
As to `C/C=C/[C@@H]1O[C@H]([C@@H](/C=C/C=C(\C)C[C@@H](C)/C=C(C)\C=C\[C@H]2CC=CC(=O)O2)NC(=O)OCCc2cn(-c3ccc(C(=O)NCCCC[C@H](NC(=O)CC[C@H](NC(=O)CC[C@H](NC(=O)c4ccc(NCc5cnc6nc(N)nc(O)c6n5)cc4)C(=O)O)C(=O)O)C(=O)O)cc3)nn2)C[C@@H](O)[C@@H]1C` [FA-6-16R-Aminoratjadone, (3S,8S,13S)-1-(4-(((2-amino-4-hydroxypteridin-6-yl)methyl)amino)phenyl)-19-(4-(4-(2-((((1R,2E,4E,7R,8Z,10E)-1-((2S,4R,5S,6S)-4-hydroxy-5-methyl-6-((E)-prop-1-en-1-yl)tetrahydro-2H-pyran-2-yl)-5,7,9-trimethyl-1-((R)-6-oxo-3,6-dihydro-2H-pyran-2-yl)undeca-2,4,8,10-tetraen-1-yl)carbamoyl)oxy)ethyl)-1H-1,2,3-triazol-1-yl)phenyl)-1,6,11,19-tetraoxo-2,7,12,18-tetraazanonadecane-3,8,13-tricarboxylic acid], the half-inhibitory concentration (IC50) in test [4] came to 150 nM.
On to `C/C=C/[C@@H]1O[C@H]([C@@H](/C=C/C=C(\C)C[C@@H](C)/C=C(C)\C=C\[C@H]2CC=CC(=O)O2)NC(=O)OCCc2cn(CCC[C@H](NC(=O)[C@H](Cc3ccc(O)cc3)NC(=O)[C@H](CO)NC(=O)[C@H](Cc3c[nH]c4ccccc34)NC(=O)[C@H](Cc3c[nH]cn3)NC(=O)[C@@H]3CCC(=O)N3)C(=O)N[C@@H](CC(C)C)C(=O)N[C@@H](CCCNC(=N)N)C(=O)N3CCC[C@H]3C(=O)NCC(N)=O)nn2)C[C@@H](O)[C@@H]1C` [L-Orn-LHRH-16R-Aminoratjadone], for which the IC50 in test [1] worked out at 1600 nM; against CRM1 it was 1060 nM.
`C/C=C/[C@@H]1O[C@H]([C@H](O)/C=C/C=C(\C)C[C@@H](C)/C=C(C)\C=C\[C@H]2CC=CC(=O)O2)C[C@@H](O)[C@@H]1C` [Ratjadone A 1, (R)-6-((1E,3Z,5R,7E,9E,11R)-11-hydroxy-11-((2S,4R,5S,6S)-4-hydroxy-5-methyl-6-((E)-prop-1-en-1-yl)tetrahydro-2H-pyran-2-yl)-3,5,7-trimethylundeca-1,3,7,9-tetraen-1-yl)-5,6-dihydro-2H-pyran-2-one, reference compound]: the half-maximal inhibitory concentration (IC50) at CRM1 (setting [5]) stood at 1.2 nM.
